We go through two compounds from article PMC9469100, “Turning Nonselective Inhibitors of Type I Protein Arginine Methyltransferases into Potent and Selective Inhibitors of Protein Arginine Methyltransferase 4 through a Deconstruction–Reconstruction and Fragment-Growing Approach” (Journal of Medicinal Chemistry, 2022).

Series [1] has as its target ΔN(1–60)-PRMT8 (Homo sapiens, UniProt Q9NR22). Nature of the series: Radioisotope-based filter-binding (HotSpot) assay, PRMT8. The settings on record: for IC50: read-out: IC50 (μM) PRMT8, 5 μM histone H4, 1 μM 3H-SAM; for pIC50: read-out: IC50 PRMT8 (Figure 5 heatmap).
Method: (§1) Then, ^3H-SAM (final concentration 1 μM) was delivered into the reaction mixture to initiate the reaction. After incubation for 60 min at 30 °C, the reaction mixture was delivered to filter paper for detection (as assessed by scintillation). Data were analyzed using Excel and GraphPad Prism 6.0 software (GraphPad Software Inc., San Diego, CA) for IC50 curve fits using sigmoidal dose vs response-variable slope (four parameters) equations.
Series [2] addresses PRMT5/MEP50 complex (Homo sapiens, UniProt O14744). Nature of the series: Radioisotope-based filter-binding (HotSpot) assay, PRMT5. The settings on record: radioisotope-based filter assay; for IC50: read-out: IC50 (μM) PRMT5, 5 μM histone H2A, 1 μM 3H-SAM.
Method: as §1
In series [3] the target is PRMT3 (Homo sapiens, UniProt O60678). Nature of the series: Radioisotope-based filter-binding (HotSpot) assay, PRMT3. The settings on record: radioisotope-based filter assay; for IC50: read-out: IC50 (μM) PRMT3, 5 μM histone H4, 1 μM 3H-SAM; for pIC50: read-out: IC50 PRMT3 (Figure 5 heatmap).
Chain of PRMT3 (O60678 2-531): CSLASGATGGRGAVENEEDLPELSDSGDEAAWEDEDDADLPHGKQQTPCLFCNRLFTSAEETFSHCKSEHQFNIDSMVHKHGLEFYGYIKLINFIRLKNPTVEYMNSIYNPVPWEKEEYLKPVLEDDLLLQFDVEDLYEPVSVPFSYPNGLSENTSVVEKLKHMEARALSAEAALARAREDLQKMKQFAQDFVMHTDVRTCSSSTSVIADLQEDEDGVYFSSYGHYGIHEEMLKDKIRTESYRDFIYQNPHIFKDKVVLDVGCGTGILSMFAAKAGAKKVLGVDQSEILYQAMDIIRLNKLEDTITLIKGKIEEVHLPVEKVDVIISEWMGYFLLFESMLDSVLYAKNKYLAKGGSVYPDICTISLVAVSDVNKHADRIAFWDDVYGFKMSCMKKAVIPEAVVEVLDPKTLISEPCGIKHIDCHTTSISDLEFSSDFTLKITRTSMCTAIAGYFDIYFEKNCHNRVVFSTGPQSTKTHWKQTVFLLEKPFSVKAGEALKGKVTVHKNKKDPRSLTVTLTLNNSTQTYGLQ
Method: as §1
Series [4] can be described thus: Parallel artificial membrane permeability assay (PAMPA). Type of series: in vitro ADME. The settings on record: phosphate buffer pH 7.4, donor 0.2 mM, 24 h at room temperature. The protocol:
A donor solution (0.2 mM) was prepared by diluting 20 mM dimethyl sulfoxide (DMSO) compound stock solution using phosphate buffer (pH 7.4, 0.01 M). Filters were coated with 5 μL of a 1% (w/v) dodecane solution of L-α-phosphatidylcholine. Donor solution (150 μL) was added to each well of the filter plate. To each well of the acceptor plate, 300 μL of solution (5% DMSO in phosphate buffer) was added. […] The sandwich was incubated for 24 h at room temperature under gentle shaking. After the incubation time, the sandwich plates were separated, and 250 μL of the acceptor plate was transferred to a UV quartz microtiter plate and measured by UV spectroscopy, using a Multiskan GO microplate spectrophotometer (Thermo Fisher Scientific) at 250–500 nm at a step of 5 nm. Reference solutions (250 μL) were prepared diluting the sample stock solutions to the same concentration as that with no membrane barrier.

Series [5] addresses T1, PRMT4 (Homo sapiens, UniProt Q86X55).
T1 sequence (Q86X55 2-608): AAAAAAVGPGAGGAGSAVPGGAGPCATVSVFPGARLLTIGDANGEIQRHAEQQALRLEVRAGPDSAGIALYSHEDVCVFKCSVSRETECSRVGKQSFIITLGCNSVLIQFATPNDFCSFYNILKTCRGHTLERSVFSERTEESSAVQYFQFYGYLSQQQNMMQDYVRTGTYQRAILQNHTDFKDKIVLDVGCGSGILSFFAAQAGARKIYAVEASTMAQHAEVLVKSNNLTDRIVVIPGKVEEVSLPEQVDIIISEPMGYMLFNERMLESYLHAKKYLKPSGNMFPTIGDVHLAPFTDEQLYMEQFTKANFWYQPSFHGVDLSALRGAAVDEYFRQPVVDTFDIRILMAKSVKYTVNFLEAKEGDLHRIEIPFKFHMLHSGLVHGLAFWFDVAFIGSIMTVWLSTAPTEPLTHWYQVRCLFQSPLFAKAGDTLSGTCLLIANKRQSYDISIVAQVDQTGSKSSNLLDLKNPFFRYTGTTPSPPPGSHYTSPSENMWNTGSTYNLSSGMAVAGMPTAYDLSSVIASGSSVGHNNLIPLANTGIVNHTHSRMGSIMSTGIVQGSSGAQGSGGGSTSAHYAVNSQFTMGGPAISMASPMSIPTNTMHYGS
Nature of the series: Radioisotope-based filter-binding (HotSpot) assay, PRMT4. The settings on record: for IC50: read-out: IC50 (μM) PRMT4, 5 μM histone H3, 1 μM 3H-SAM; for IC50 / pIC50: radioisotope-based filter assay.
Method: as §1

Series [6] has as its target PRMT6 (Homo sapiens, UniProt Q96LA8). Nature of the series: Radioisotope-based filter-binding (HotSpot) assay, PRMT6. The settings on record: radioisotope-based filter assay; for IC50: read-out: IC50 (μM) PRMT6, 5 μM GST-GAR, 1 μM 3H-SAM; for pIC50: read-out: IC50 PRMT6 (Figure 5 heatmap).
Method: as §1
Series [7] deals with T2, PRMT7 (Homo sapiens, UniProt Q9NVM4).
T2 sequence (Q9NVM4 2-692): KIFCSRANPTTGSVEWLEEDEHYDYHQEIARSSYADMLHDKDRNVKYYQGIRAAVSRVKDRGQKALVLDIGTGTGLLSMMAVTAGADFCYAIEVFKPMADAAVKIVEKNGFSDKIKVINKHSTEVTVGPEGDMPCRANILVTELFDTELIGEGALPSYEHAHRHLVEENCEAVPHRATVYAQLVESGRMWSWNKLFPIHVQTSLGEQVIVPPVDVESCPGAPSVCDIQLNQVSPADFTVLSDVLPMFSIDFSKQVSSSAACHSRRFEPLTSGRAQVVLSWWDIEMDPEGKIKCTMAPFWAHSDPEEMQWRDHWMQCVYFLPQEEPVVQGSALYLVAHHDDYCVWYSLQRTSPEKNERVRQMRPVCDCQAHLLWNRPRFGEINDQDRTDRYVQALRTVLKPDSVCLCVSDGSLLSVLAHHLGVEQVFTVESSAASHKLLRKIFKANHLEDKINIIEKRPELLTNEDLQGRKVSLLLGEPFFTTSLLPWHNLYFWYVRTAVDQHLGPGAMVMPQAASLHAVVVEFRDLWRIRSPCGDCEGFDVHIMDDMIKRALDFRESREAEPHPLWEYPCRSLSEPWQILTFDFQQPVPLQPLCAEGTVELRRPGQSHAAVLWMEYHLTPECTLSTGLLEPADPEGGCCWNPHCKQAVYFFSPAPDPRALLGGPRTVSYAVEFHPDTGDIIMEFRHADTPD
Nature of the series: Radioisotope-based filter-binding (HotSpot) assay, PRMT7. The settings on record: read-out: IC50 (μM) PRMT7; radioisotope-based filter assay; 5 μM GST-GAR; 1 μM 3H-SAM.
Method: as §1

pIC50: −log10 of the molar value. Like-named read-outs stand apart in the source and are kept apart here.

Chain of PRMT6 (Q96LA8 2-375): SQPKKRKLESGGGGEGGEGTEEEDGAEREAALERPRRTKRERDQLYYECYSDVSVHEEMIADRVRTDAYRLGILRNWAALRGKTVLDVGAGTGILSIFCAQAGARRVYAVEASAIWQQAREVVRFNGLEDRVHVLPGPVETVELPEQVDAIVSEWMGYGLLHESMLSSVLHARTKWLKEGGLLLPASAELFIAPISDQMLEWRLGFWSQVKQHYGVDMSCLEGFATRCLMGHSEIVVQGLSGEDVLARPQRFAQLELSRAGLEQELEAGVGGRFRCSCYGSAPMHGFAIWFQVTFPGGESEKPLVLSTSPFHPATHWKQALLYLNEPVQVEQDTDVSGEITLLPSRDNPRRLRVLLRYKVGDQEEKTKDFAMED
Chain of PRMT5/MEP50 complex (O14744 2-637): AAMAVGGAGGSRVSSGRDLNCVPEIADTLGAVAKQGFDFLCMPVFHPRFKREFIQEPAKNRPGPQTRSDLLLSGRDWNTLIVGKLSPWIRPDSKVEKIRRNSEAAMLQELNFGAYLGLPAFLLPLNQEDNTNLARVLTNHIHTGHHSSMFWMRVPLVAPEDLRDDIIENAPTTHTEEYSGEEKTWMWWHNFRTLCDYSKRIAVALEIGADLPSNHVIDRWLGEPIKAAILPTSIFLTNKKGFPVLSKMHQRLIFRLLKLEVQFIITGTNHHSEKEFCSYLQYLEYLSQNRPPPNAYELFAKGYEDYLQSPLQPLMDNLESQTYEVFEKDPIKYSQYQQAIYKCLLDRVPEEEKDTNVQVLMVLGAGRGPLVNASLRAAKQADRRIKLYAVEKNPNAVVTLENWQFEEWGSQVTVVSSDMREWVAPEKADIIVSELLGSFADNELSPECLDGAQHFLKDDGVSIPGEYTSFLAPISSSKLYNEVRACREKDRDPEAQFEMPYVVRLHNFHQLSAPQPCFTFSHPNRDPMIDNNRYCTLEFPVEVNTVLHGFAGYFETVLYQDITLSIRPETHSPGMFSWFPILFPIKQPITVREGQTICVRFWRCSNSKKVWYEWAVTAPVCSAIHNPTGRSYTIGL
Chain of PRMT5/MEP50 complex (Q9BQA1 2-342 partner limits assumed): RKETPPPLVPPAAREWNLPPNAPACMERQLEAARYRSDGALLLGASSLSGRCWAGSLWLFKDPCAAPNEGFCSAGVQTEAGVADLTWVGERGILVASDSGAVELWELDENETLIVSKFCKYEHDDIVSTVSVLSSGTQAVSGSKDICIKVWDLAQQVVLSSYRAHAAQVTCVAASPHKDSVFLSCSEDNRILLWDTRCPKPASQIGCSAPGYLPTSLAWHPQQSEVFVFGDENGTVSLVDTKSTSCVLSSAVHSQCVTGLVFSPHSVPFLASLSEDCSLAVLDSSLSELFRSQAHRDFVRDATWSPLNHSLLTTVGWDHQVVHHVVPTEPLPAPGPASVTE
Chain of ΔN(1–60)-PRMT8 (Q9NR22 61-394, stated change not applied): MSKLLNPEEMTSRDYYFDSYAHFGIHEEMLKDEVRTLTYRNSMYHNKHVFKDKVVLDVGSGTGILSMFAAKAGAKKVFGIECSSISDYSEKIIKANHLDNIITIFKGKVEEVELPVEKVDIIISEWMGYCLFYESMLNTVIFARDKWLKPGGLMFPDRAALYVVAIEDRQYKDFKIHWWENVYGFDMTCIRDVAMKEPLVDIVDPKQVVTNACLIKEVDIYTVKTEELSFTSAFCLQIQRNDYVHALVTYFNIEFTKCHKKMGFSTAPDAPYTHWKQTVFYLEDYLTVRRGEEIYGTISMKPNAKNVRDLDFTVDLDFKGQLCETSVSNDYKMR

As for `COC(=O)c1cc(O)c2cc(NC(=O)NCCCCNC(=N)NCCC[C@H]3O[C@@H](n4cnc5c(N)ncnc54)[C@H](O)[C@@H]3O)ccc2c1` [12g, Methyl 6-(3-(4-(3-(3-((2R,3S,4R,5R)-5-(6-Amino-9H-purin-9-yl)-3,4-dihydroxytetrahydrofuran-2-yl)propyl)guanidino)butyl)ureido)-4-hydroxy-2-naphthoate], the IC50 in series [1] turned out to be 1.41 µM; in series [2], 0.778 µM; in series [3], 13.3 µM; in series [5] it was 0.0084 µM; in series [6], 4.34 µM; in series [7], 4.68 µM. Also, the pIC50 is 5.85 in series [1], 4.88 in series [3], 8.10 in series [5] (read-out: IC50 PRMT4 (Figure 5 heatmap)) and 5.36 in series [6]. Besides, the Papp at 24 h, 0.2 mM in series [4] was 0.039 ×10⁻⁶ cm/s. Further, the LE in series [5] (ligand efficiency for PRMT4 calculated from IC50 as a surrogate for KD) is 0.24. Also, the “selectivity index for PRMT4 vs other PRMTs: PRMT1” value in series [5] (ratio IC50 PRMT1 / IC50 PRMT4, rounded to nearest integer) worked out at 214. Further, in series [5] (ratio IC50 PRMT3 / IC50 PRMT4), the “selectivity index for PRMT4 vs other PRMTs: PRMT3” value came out at 1583. Moreover, in series [5] (ratio IC50 PRMT5 / IC50 PRMT4), the “selectivity index for PRMT4 vs other PRMTs: PRMT5” value came out at 93. Besides, the “selectivity index for PRMT4 vs other PRMTs: PRMT6” value in series [5] (ratio IC50 PRMT6 / IC50 PRMT4) was 517. In addition, in series [5] (ratio IC50 PRMT7 / IC50 PRMT4), the “selectivity index for PRMT4 vs other PRMTs: PRMT7” value amounted to 557. Besides, in series [5] (ratio IC50 PRMT8 / IC50 PRMT4), the “selectivity index for PRMT4 vs other PRMTs: PRMT8” value is on record as 168. For the same compound, the “SI PRMT1 (Figure 5 heatmap)” value in series [5] (selectivity index for PRMT4 over PRMT1) stood at 214 fold. Further, in series [5] (selectivity index for PRMT4 over PRMT3), the “SI PRMT3 (Figure 5 heatmap)” value was 1,583 fold. In series [5] (selectivity index for PRMT4 over PRMT5), the “SI PRMT5 (Figure 5 heatmap)” value amounted to 93 fold. Moreover, the “SI PRMT6 (Figure 5 heatmap)” value in series [5] (selectivity index for PRMT4 over PRMT6) came to 517 fold. Besides, in series [5] (selectivity index for PRMT4 over PRMT7), the “SI PRMT7 (Figure 5 heatmap)” value was 557 fold. The “SI PRMT8 (Figure 5 heatmap)” value in series [5] (selectivity index for PRMT4 over PRMT8) is 168 fold.
For `COC(=O)c1cc(O)c2cc(NC(=O)NCCCCNC(=N)NC/C=C/[C@H]3O[C@@H](n4cnc5c(N)ncnc54)[C@H](O)[C@@H]3O)ccc2c1` [12h, Methyl 6-(3-(4-(3-((E)-3-((2R,3S,4R,5R)-5-(6-Amino-9H-purin-9-yl)-3,4-dihydroxytetrahydrofuran-2-yl)allyl)guanidino)butyl)ureido)-4-hydroxy-2-naphthoate], the IC50 came to 1.95 µM in series [1]; 1.46 µM in series [2]; 4.05 µM in series [3]; 0.0032 µM in series [5]; 1.75 µM in series [6]; 1.68 µM in series [7]. The pIC50 in series [1] is 5.71; in series [2] (read-out: IC50 PRMT5 (Figure 5 heatmap)), 5.84; in series [3], 5.39; in series [5] (IC50 PRMT4 (Figure 5 heatmap)), 8.52; in series [6], 5.76. In addition, in series [4], the Papp at 24 h, 0.2 mM came to 0.038 ×10⁻⁶ cm/s. Further, in series [5] (PRMT4), the “gain in potency over its shorter counterpart 12b” value amounted to 668 fold.

Usually IC50 stands for the point on the concentration scale where inhibition reaches its midpoint. By pIC50 is commonly meant the IC50 on a negative log10 scale, so that one unit is a factor of ten. Usually Papp stands for the rate of passage across a membrane or cell layer, normalised by area and donor concentration. A low value points to slow passage.
